Experimental data published in patent publication US9181290B2, “Inhibition of biofilm formation by 1,2,3,4,6-penta-O-galloyl-D-glucopyranose” (CHANG GUNG UNIVERSITY, priority 2011, dated 2015).

What was measured:
[1] = tested on: S. aureus SA113Δica (ATCC 35556Δica::tet); test: Biofilm formation by ica deletion mutant on polystyrene surface; format: cell-based, Staphylococcus aureus; details: 6 hrs
Protocol: An overnight bacterial culture was 200-fold diluted with TSBg, and a 200 μL aliquot of the diluted culture was seeded into each well of 96-well polystyrene microtiter plates and incubated at 37° C. for a designated period of time. Cell growth was determined by measuring the absorbance at 578 nm (A578) with a microtiter plate reader (SpectraMax 340, Molecular Devices). After washing with PBS twice to remove suspended cells, the wells were stained with 0.1% (w/v) crystal violet in 10% ethanol and then treated with 30% acetic acid in dH2O, followed by detecting the absorbance at 595 nm (A595) with the microtiter plate reader to quantify the amount of biofilm formed on polystyrene surface.

S aureus SA113 = test: Bacterial attachment onto glass coverslips (data not shown); format: cell-based, Staphylococcus aureus
S. aureus SA113 [2] = test: Fluorescence microscopy of adhered cells after Syto 9 staining; format: cell-based, Staphylococcus aureus; details: 6.25 μM and 12.5 μM, 60 min
Protocol: Meanwhile, cells adhering to the polystyrene or polycarbonate surfaces were washed off with PBS at 60 min after seeding and stained with Syto 9 (Invitrogen), a green florescence dye that stains nucleic acids, followed by observation under a fluorescence microscope.
The cells adhering to the polystyrene surface and polycarbonate surface after treatment with 0 μM, 6.25 μM and 12.5 μM β-PGG for 60 min were also examined under a fluorescent microscope after Syto 9 staining.

[3] = tested on: polysaccharide intercellular adhesion (PIA) production by S. aureus SA113; test: Quantification of PIA by chemiluminescence (WGA-biotin/HRP-streptavidin); format: cell-based, Staphylococcus aureus; details: 6 hrs; for decrease of the amount of PIA formed on the cell surface: densitometer, untreated = 100%
Protocol: The amount of PIA was determined by chemiluminescence detection using horseradish peroxidase-conjugated streptavidin (Pierce) according to a method described elsewhere (S. Schlag et al. (2007), supra). Briefly, a tested bacterial strain prepared in TSBg broth was added with β-PGG at a designated concentration and then cultured in a 9 cm petri dish for 6 hrs. The bacterial cells grown in the petri dish were collected by scraping, followed by centrifugation, and the resultant cell pellets were redissolved by addition of 3 mL of 0.5 M EDTA (pH 8.0) for every gram (wet weight) of cell pellet, followed by boiling at 100° C. for 10 min. After centrifugation at 10,000 g for 30 min, the resultant supernatant was 100-fold diluted. An 80 μL aliquot of the diluted supernatant was incubated with 20 μL of proteinase K (10 mg/mL, in dH2O) at 37° C. for 2 hrs, followed by blotting onto a PVDF membrane (Millipore) using a 96-well dot-blot apparatus. After blotting, the membrane was dried and soaked in a first blocking buffer (containing 3% bovine serum albumin (BSA) and 0.05% Tween-20 in PBS), followed by incubation at room temperature for 1 hr in the first blocking buffer containing 0.8 μg/mL wheat germ agglutinin conjugated with biotin (WGA-biotin, Sigma-Aldrich). After sequentially washing with the first blocking buffer and a second blocking buffer (containing 1% BSA and 0.05% Tween-20 in PBS), the membrane was incubated with horseradish peroxidase-conjugated streptavidin (Pierce) for 30 min, and washed 4 times with the first blocking buffer, followed by incubation with 1 mL of a substrate reagent (Luminol/Enhancer solution and Stable Peroxide solution, Pierce) at room temperature for 5 min. Thereafter, the membrane was detected by autoradiography using X-ray film, and the intensity of each spot formed on the X-ray film was quantified using a densitometer (LAS-3000, Fujifilm). The relative PIA amount produced by the tested bacterial strain was determined based on the detected intensity, with the amount of PIA from bacterial cells without PGG treatment being set as 100%.
To detect PIA in culture medium, the medium was concentrated using an Amicon-Ultra4 centrifuge filter (Millipore, Billerica, Mass., USA) prior to extraction.
Similar experiments were performed using four clinical isolates of S. aureus, namely MSSA strains SA13 and SA288, and MRSA strains SA44 and SA 130.

S. aureus SA113 [4] = test: CFU counting of cells adhered to polystyrene surface; format: cell-based, Staphylococcus aureus
Text: To count the number of viable cells, the removed suspended cells were suspended in PBS by pipetting, and the resultant cell suspension was sonicated and serially diluted and subsequently plated on TSBg agar plate for colony forming unit (CFU) counting according to a method described earlier (S. Schlag et al. (2007), J. Bacteriol., 189:7911-7919).
In addition to biofilm formation, the number of cells attached to polystyrene surface and polycarbonate surface were also counted. Subsequent to the incubation of S. aureus SA113 cells with β-PGG (0 μM, 6.25 μM or 12.5 μM) for 20, 40 and 60 min, cells adhered to the polystyrene surface or polycarbonate surface were washed and suspended in PBS, followed by plating on TSBg agar for CFU counting. After incubation on polystyrene surface for 20, 40 and 60 min, the number of cells counted for the DMSO-treated control (i.e., 0 μM β-PGG) was 4.1×10^5, 6.4×10^5 and 7.8×10^5 CFU, respectively (FIG. 4, panel A, black bars).

S. aureus SA113 [5] = test: Scanning electron microscopy of cells on polycarbonate discs; format: cell-based, Staphylococcus aureus; details: 3.13 μM, 6 hrs
Protocol: S. aureus SA113 cells were grown on polycarbonate discs in the presence or absence of 3.13 μM β-PGG. After 6 hours incubation, the discs were washed three times with PBS to remove planktonic cells and then prepared for SEM examination as described elsewhere (Guo-Xian Wei et al. (2006), supra). The samples thus prepared were observed using a Hitachi S-5000 scanning electron microscope.

Acinetobacter baumannii = test: Anti-biofilm activity (data not shown); format: cell-based

O=C(OC[C@H]1O[C@@H](OC(=O)c2cc(O)c(O)c(O)c2)[C@H](OC(=O)c2cc(O)c(O)c(O)c2)[C@@H](OC(=O)c2cc(O)c(O)c(O)c2)[C@@H]1OC(=O)c1cc(O)c(O)c(O)c1)c1cc(O)c(O)c(O)c1 [β-PGG, 1,2,3,4,6-penta-O-galloyl-β-D-glucopyranose]
effect on biofilm formation by the mutant, polystyrene surface ([1]; 1.56 μM): did not affect the biofilm formation | decrease of the amount of biofilm, polystyrene surface ([1]; 3.13 μM): 72% | bacterial attachment onto glass coverslips (S aureus SA113): inhibited bacterial attachment onto glass coverslips | cells attached to polystyrene and polycarbonate surfaces (Syto 9) (S. aureus SA113 [2]): significantly reduced the number of cells attached | decrease of the amount of PIA formed on the cell surface ([3]; 3.13 μM): 7% | decrease of the amount of PIA formed on the cell surface ([3]; 12.5 μM): 58% | decrease of the amount of PIA formed on the cell surface ([3]; 50 μM): 87% | PIA production (extracted from bacterial cells) ([3]; 3.13, 12.5 and 50 μM): PIA production was inhibited | PIA released into the culture medium ([3]; 3.13, 12.5 and 50 μM): decreased after β-PGG treatment in a dose-dependent manner | number of cells attached to polystyrene surface (S. aureus SA113 [4]; 6.25 μM, 20 min, DMSO control 4.1×10^5): 2.1×10^5 CFU | number of cells attached to polystyrene surface (S. aureus SA113 [4]; 6.25 μM, 40 min, DMSO control 6.4×10^5): 2.05×10^5 CFU | number of cells attached to polystyrene surface (S. aureus SA113 [4]; 6.25 μM, 60 min, DMSO control 7.8×10^5): 1.8×10^5 CFU | number of cells attached to polystyrene surface (S. aureus SA113 [4]; 12.5 μM, 20 min, DMSO control 4.1×10^5): 3.7×10^4 CFU | number of cells attached to polystyrene surface (S. aureus SA113 [4]; 12.5 μM, 40 min, DMSO control 6.4×10^5): 2.3×10^4 CFU | number of cells attached to polystyrene surface (S. aureus SA113 [4]; 12.5 μM, 60 min, DMSO control 7.8×10^5): 1.7×10^4 CFU | web structure (likely PIA) on polycarbonate surface by SEM (S. aureus SA113 [5]): caused the web structure to disappear | anti-biofilm activity (Acinetobacter baumannii): potent to mild anti-biofilm activity
